From patent US9539321B2, “HMGB1-derived peptides enhance immune response to antigens” (The Regents of the University of California, priority 2010, dated 2017)
“Also recorded” adds a separate entry of the source. Where two headings read alike, the source gives them in different places. Where a SMILES comes first, the peptide text is derived from it. The star is where a group is joined. Biotin = O=C1N[C@H]2[C@H](CS[C@H]2CCCCC(=O)*)N1

Legend:
[1] = test system: mouse BM-DCs; experiment: Stimulation of mouse BM-DCs, IL-6 by ELISA; type: cell-based
[2] = test system: Immature human DCs; experiment: Peptide binding/uptake by flow cytometry; conditions: for uptake by DCs: biotinylated peptide 200 μg ml^−1, 30 minutes, 37° C.
[3] = test system: Immature human DCs; conditions: cited from earlier work
[4] = test system: antigen-specific IFN-γ secreting T cells; experiment: IFN-γ ELISPOT of splenocytes from immunized mice; type: in vivo, C57BL/6 mice; conditions: for number of antigen-specific IFNγ-secreting T cells compared to PBS: equimolar peptide with SIINFEKL peptide
Method: Female C57BL/6 mice 8-12 weeks of age were used for most experiments. All mice were purchased from Charles River Laboratories (Boston, Mass., USA) and housed at the Moores UCSD Cancer Center animal facility. All animal studies were approved by the Institutional Animal Care and Use Committee of UCSD and were perfolined in accordance with the institutional guidelines. For most experiments, mice were immunized s.c. with 50 μg of SIINFEKL (OVA-I) peptide (SEQ ID NO: 45) and 50 μg of ISQAVHAAHAEINEAGR (OVA-II) peptide (SEQ ID NO: 46). The OVA peptide was co-administered with either Hp91 (30 to 500 μg) or PBS (negative control). For some experiments, a protein vaccine group was included, wherein 500 μg of Hp91 was co-administered with 100 μg of LPS-free OVA protein. As a positive control, mice were immunized s.c. with OVA peptide(s) or protein in Incomplete Freund's Adjuvant “IFA” (Sigma-Aldrich, St. Louis, Mo., USA). If not otherwise indicated, mice were immunized and boosted two weeks later and spleens and blood were collected 10-14 days after the final immunization.
Single cell suspensions of splenocytes were prepared by mechanical disruption and separation through a 70 μm nylon cell strainer (BD Biosciences, Franklin Lakes, N.J., USA). Red blood cells were lysed using ammonium chloride buffer (Roche Diagnostics, Indianapolis, Ind., USA) and the splenocytes were subsequently resuspended in complete medium (RPMI 1640 with 10% FBS, L-glutamine, penicillin, streptomycin, and HEPES). in some experiments, CD4+ and CD8+ cells were depleted from bulk splenocyte populations using anti-CD4 or anti-CD8α conjugated microbeads (Miltenyi-Biotec, Auburn, Calif., USA) according to the manufacturer's instructions.
Freshly isolated splenocytes were plated in duplicate to wells of a nitrocellulose bottom enzyme-linked immunospot (ELISPOT) plate (Millipore, Millerica, Mass., USA) that had been previously coated overnight with 5 μg ml^−1 monoclonal anti-mouse IFN-γ antibody (Mabtech, Stockholm, Sweden). Splenocytes were cultured overnight at 37° C. with 2.5 μg ml^−1 SIINFEKL (OVA-I) peptide, 2.5 μg ml^−1 ISQAVHAAHAEINEAGR (OVA-II) peptide, or left unstimulated (medium only). After 18 h, culture supernatants were collected for cytokine analysis and ELISPOT plates were developed using 1 μg ml^−1 biotinylated anti-mouse IFN-γ antibody (Mabtech), Streptavidin-HRP (Mabtech), and TMB Substrate (Mabtech). The plate was scanned and the spots were counted using an automated ELISpot Reader System (CTL ImmunoSpot, Shaker Heights, Ohio, USA).
Mice were immunized s.c. with 50 μg of SIINFEKL peptide. The SIINFEKL peptide was co-administered with either PBS, Hp91 (250 μg), or scrambled Hp91 (250 μg). Peptides were dissolved in PBS for all immunizations, Mice were boosted two weeks later and spleens and blood were collected one week after the final immunization. Single cell suspensions of splenocytes were prepared by mechanical disruption and separation through a […] nylon cell strainer (BD Biosciences). Red blood cells were lysed using ammonium chloride buffer (Roche Diagnostics, Indianapolis, Ind.) and the splenocytes were subsequently resuspended in RPMI 1640 medium (Invitrogen) supplemented with 10 mmol HEPES (GIBCO-BRL), penicillin (100 U/mL)—streptomycin (100 μg/mL)—glutamine (2 mM) (GIBCO-BRI.), arid 5% (vol/vol) fetal calf serum (Omega).
Freshly isolated splenocytes were plated in duplicate to wells of a nifrocellulose bottom enzymelinked immunospot (ELISPOT) plate (Millipore, NAillerica, Mass., USA) that had been previously coated overnight with 5 μg ml^−1 monoclonal anti-mouse IFN-γ antibody (Mabtech, Stockholm, Sweden). Splenocytes were cultured overnight at 37° C., with 2.5 μg ml^−1 SIINFEKL peptide, 5 μg ml^−1 concanavalin A positive control (Sigma), or left unstimulated (medium only). […]

[5] = test system: Immature human DCs; experiment: Confocal microscopy of peptide binding/uptake; type: cell-based; conditions: even after 30 minutes at 37° C.
Method: Immature human DCs (10^5) were pre-cooled on ice and subsequently incubated for 30 minutes on ice in culture medium with biotinylated Hp91 or Hp121 to allow peptide binding. Cells were washed and then incubated for the indicated time at 37° C. Cells were cytospun (Shandon Cytospin 2 centrintge) onto glass slides, fixed, pernieabiiized with acetone, and stained with Streptavidin-Alexa 488 (Invitrogen) to visualize biotinylated peptides and Hoechst 33258 DNA stain (Invitrogen). Cells were imaged on a Zeiss LSM confocal microscope.

[6] = test system: Immature human DCs; experiment: Stimulation of DCs, IL-6 by ELISA; type: cell-based; conditions: for effect of inhibitor pre-treatment on Hp91-induced IL-6 secretion: SB203580 5 or 20 μM, PD98059 20 μM, TPCK 20 μM, 48 h
[7] = test system: J774 macrophages; type: cell-based, mouse
[8] = Circular dichroism; type: physicochemical; conditions: 75%/25% TFE/H2O, 200 μg ml^−1
Method: CD spectra of peptides, dissolved in 75%/25% Trifluoroethanol (TFE, Sigma)/H2O (vol/vol), were collected on an AVIV model 202 Circular Dichroism Spectrometer, under nitrogen, using a 1 mm pathlength quartz cuvette. These spectra were corrected by subtraction of a “solvent-only” spectrum and smoothed. The spectra are shown in mean residue ellipticity (θmrw). Peptides were analyzed at 200 μg ml^−1.

[9] = test system: p-IRF3 in RAW 264.7 macrophages; experiment: Immunoblotting for phospho-IRF3; type: cell-based, mouse; conditions: Dynasore 80 μM pre-treatment
[10] = test system: J774 macrophages; experiment: Uptake of Cp488-labeled Hp91 by macrophages, flow cytometry; type: cell-based, mouse; conditions: Dynasore 80 μM, Cp488-labeled Hp91 200 μg ml^−1
[11] = Adverse effects of tested doses in mice; type: in vivo
[12] = test system: splenocytes; experiment: IL-2 / IL-4 secretion of splenocytes from immunized mice by ELISA; type: in vivo, C57BL/6 mice
Method: Splenocytes were cultured overnight with 2.5 μg ml^−1 OVA-I peptide, 2.5 μg ml^−1 OVA-II peptide, 5 μg ml^−1 concanavalin A positive control (Sigma), or left unstimulated (media only). After 18 h, cell culture supernatants were collected and analyzed for the presence of IL-2 and IL-4 by ELISA (eBioscience).
To measure cytokine release from immunized mice, splenocytes were cultured overnight with 2.5 μg ml^−1 SINFEKI: peptide, 5 μg ml^−1 concanavalin A positive control (Sigma), or left unstimulated (medium only). After 18 h, cell culture supernatants were collected and analyzed for the presence of IL-2 by ELISA. (eBioscience).
To measure cytokine release from immunized mice, splenocytes were cultured overnight with 2.5 μg ml^−1 SIINFEKL peptide, 5 μg ml^−1 concanavalin A positive control (Sigma), or left unstimulated (media only). After 18 h, cell culture supernatants were collected and analyzed for the presence of IL-2 by ELISA (eBioscience).

[13] = test system: B16 melanoma cells; experiment: Prophylactic B16 tumor challenge
[14] = biotinylated, 90 μM, 30 minutes 37° C.

## SIGDVAKKLGEMWNNTAA (Hp121 peptide)
[1]
  activation of mouse BM-DCs in vitro: does not cause activation
[2]
  uptake by DCs: not taken up
[3]
  activation of human DCs in vitro: does not cause activation
[4]; s.c. with OVA-I peptide, 250 μg peptide, freshly isolated and expanded splenocytes, vs PBS/OVA-I
  number of INF-γ secreting cells: No significant increase
[5]
  detection within DCs: not detected

## N-tosyl-L-phenylalanine chloromethyl ketone [TPCK]
[6]
  effect of inhibitor pre-treatment on Hp91-induced IL-6 secretion: significantly reduced
[7]
  effect of inhibitor pre-treatment on Hp91-induced IL-6 secretion: significantly lowered

## DPNAPKRP (UC18 peptide)
[2]; [14]
  endocytosis by DCs: failed to be endocytosed
[8]
  secondary structure from CD spectrum: polyproline II helix

## O=C(N/N=C/c1ccc(O)c(O)c1)c1cc2ccccc2cc1O [Dynasore]
[9]
  effect on Hp91-induced phosphorylation of IRF3: reduced the phosphorylation of IRF3
[10]
  effect on uptake of Hp91: significantly inhibited uptake
[7]
  effect of inhibitor pre-treatment on Hp91-induced IL-6 secretion: significantly reduced

## ASLAPPFPNCFDPKSREF (scrambled Hp91 peptide)
[2]
  uptake by DCs: much lesser extent than Hp91; also recorded: not taken up
[4]; 250 μg with SIINFEKL peptide, compared to Hp91
  antigen-specific immune response (IFN-γ ELISPOT, IL-2): failed to mount an antigen-specific immune response

## RPPSAFFLFCSE (UC718 peptide)
[6]; short peptides, 48 hours
  IL-6 / cytokine secretion from DCs: induces cytokine release from DCs

## COc1cccc(-c2cc(=O)c3ccccc3o2)c1N [PD98059]
[6]
  effect of inhibitor pre-treatment on Hp91-induced IL-6 secretion: failed to significantly reduce

## CC(C)C[C@H](NC(=O)[C@H](Cc1ccccc1)NC(=O)[C@H](Cc1ccccc1)NC(=O)[C@H](C)NC(=O)[C@H](CO)NC(=O)[C@@H]1CCCN1C(=O)[C@@H]1CCCN1C(=O)[C@H](CCCNC(=N)N)NC(=O)[C@H](CCCCN)NC(=O)[C@@H]1CCCN1C(=O)[C@H](C)NC(=O)[C@H](CC(N)=O)NC(=O)[C@@H]1CCCN1C(=O)[C@H](CC(=O)O)NC(=O)CCCC[C@@H]1SC[C@@H]2NC(=O)N[C@@H]21)C(=O)N[C@@H](Cc1ccccc1)C(=O)N[C@@H](CS)C(=O)N[C@@H](CO)C(=O)N[C@@H](CCC(=O)O)C(=O)O [Hp91, DPNAPKRPPSAFFLFCSE] (Biotin-DPNAPKRPPSAFFLFCSE-OH)
[11]
  adverse effects: no adverse effects

## C[C@@H]1[C@H](O)[C@@H](C)/C=C/C=C/CC/C=C/C=C/C=C/C=C/C(O[C@H]2O[C@H](C)[C@@H](O)[C@H](N)[C@@H]2O)CC2O[C@](O)(CC(O)C(O)CCC(O)CC(O)CC(O)CC(=O)O[C@H]1C)CC(O)C2C(=O)O (stereo partly drawn) [nystatin]
[2]
  effect of inhibitor pre-treatment on uptake of biotinylated Hp91: failed to significantly reduce

## N=C(N)NC(=O)c1nc(Cl)c(N)nc1N [amiloride]
[2]; 30 minutes pre-treatment, PAO 2 μM, CP 100 μM, NY 20 μM, AM 2 mM
  effect of inhibitor pre-treatment on uptake of biotinylated Hp91: failed to significantly reduce

## C[S+]([O-])c1ccc(-c2nc(-c3ccncc3)c(-c3ccc(F)cc3)[nH]2)cc1 (stereo not drawn) [SB203580]
[6]
  effect of inhibitor pre-treatment on Hp91-induced IL-6 secretion: significantly reduced
[7]
  effect of inhibitor pre-treatment on Hp91-induced IL-6 secretion: significantly lowered

## C/C1=C/C(=O)O[C@@H]2C[C@@H](CC[C@H](C)/C=C\CC1)O[C@@](O)([C@@H]1CSC(=O)N1)C2 [Latrunculin B]
[2]
  effect of inhibitor pre-treatment on uptake of biotinylated Hp91: did not significantly reduce
  uptake of Dextran FITC: completely abrogating

## SAFFLFCSE [UC1018]
[12]; equimolar doses
  IL-2 level relative to Hp91 controls: 4 fold
[12]; immunized with SIINFEKL peptide and peptide adjuvant
  IL-2: significantly enhanced
[13]; 142 μg with apoptotic B16 cells, significant as early as 11 days post challenge
  tumor formation and tumor growth vs PBS group: delay in tumor formation and slowing of tumor growth
[13]; at 75 days post tumor challenge
  mice tumor-free and alive: 60%
[2]; [14]
  uptake by DCs compared to Hp91 controls: over 3 fold
[4]; discussion statement
  adjuvant strength in vivo relative to Hp91, by IFN-γ ELISPOT and IL-2 cytokine release: 3 fold
[4]; equimolar doses
  IFNγ ELISPOT immune response relative to Hp91 positive control: 4 fold
[4]
  number of antigen-specific IFNγ-secreting T cells compared to PBS: significant increase
[8]
  secondary structure from CD spectrum: alpha helix

## CN(C)CCCN1c2ccccc2Sc2ccc(Cl)cc21 [chlorpromazine]
[2]
  effect of inhibitor pre-treatment on uptake of biotinylated Hp91: significantly reduced
[7]
  effect of inhibitor pre-treatment on Hp91-induced IL-6 secretion: no reduction

## [N-]=[N+]=[N-] [Sodium azide, sodium azide]
[2]; Homo sapiens, read-out: inhibition of Hp91 uptake
  inhibition at 10000 µM: ~40%

## APKRPPSA (UC411 peptide)
[2]; [14]
  endocytosis by DCs: failed to be endocytosed

## RPPSAFFL (UC714 peptide)
[2]; [14]
  endocytosis by DCs: failed to be endocytosed
[4]; equimolar doses
  IFNγ-secreting T cells relative to full-length Hp91 peptide: 50%
[4]
  number of antigen-specific IFNγ-secreting T cells compared to PBS: moderate increases
